Assays:
[1] = system: A549 cells (KRAS G12S mutant); experiment: Cell proliferation inhibition experiment, 3D spheroid, CellTiter-Glo, A549; type: cell-based, human; details: Homo sapiens, A549, 120 h, A549 (KRAS G12S mutant) 3D spheroid, 5 days with compound, CellTiter-Glo; read-out: A549 IC50
How it was run: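 3D spheroid format; 800 H358 / 400 A549 cells/well, 2% FBS. Cpd 3.16-fold series, 0.1% DMSO, 5 d. Readout CellTiter-Glo luminescence; IR% vs DMSO control and medium blank; 4-parameter IC50.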

[2] = system: KRAS G12C mutant MIA PaCa-2 cells; experiment: Cell proliferation inhibition experiment, 3D spheroid, CellTiter-Glo, MIA PaCa-2; type: cell-based, human; details: Homo sapiens, MIA PaCa-2, 120 h, 3D cell model in 384-well spheroid plate, 5 days, CellTiter-Glo; read-out: MIA-PaCa2 IC50
How it was run: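 Luminescent ATP read-out (CellTiter-Glo) after 5-day compound treatment of spheroids formed overnight from 200 MIA PaCa-2 cells/well; compounds in 3.16-fold series, 0.1% DMSO final. IC50 derived by four-parameter fit of percent inhibition, normalized to DMSO control and medium blank.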

| IC50 [1] [µM] | IC50 [2] [µM] | Structure (SMILES) |
| --- | --- | --- |
| 3.34 | 0.014 | C=CC(=O)N1CCN2C(=O)c3c(N4C[C@@H](N(C)C)CC4(C)C)nc(-c4ccccc4F)c(Cl)c3OC[C@H]2C1 [Z453-1, (R)-8-acryloyl-4-chloro-1-((S)-4-(dimethylamino)-2,2-dimethylpyrrolidin-1-yl)-3-(2-fluorophenyl)-6,6a,7,8,9,10-hexahydro-12H-pyrazino[2,1-c]pyrido[3,4-f][1,4]oxazepin-12-one] |
| 2.13 | 0.0047 | C=CC(=O)N1CCN2C(=O)c3c(N4CC(N5CCN(C)CC5)CC4(C)C)nc(-c4ccccc4F)c(Cl)c3OC[C@H]2C1 (stereo partly drawn) [Z454, (6aR)-8-acryloyl-4-chloro-1-(2,2-dimethyl-4-(4-methylpiperazin-1-yl)pyrrolidin-1-yl)-3-(2-fluorophenyl)-6,6a,7,8,9,10-hexahydro-12H-pyrazino[2,1-c]pyrido[3,4-f][1,4]oxazepin-12-one] |
| 9.73 | 0.0228 | C=CC(=O)N1CCN2C(=O)c3c(N4CCN(C)C[C@@H]4C)nc(-c4c(F)cccc4C(F)F)c(Cl)c3OC[C@H]2C1 [Z456, (6aR)-8-acryloyl-4-chloro-3-(2-(difluoromethyl)-6-fluorophenyl)-1-((S)-2,4-dimethylpiperazin-1-yl)-6,6a,7,8,9,10-hexahydro-12H-pyrazino[2,1-c]pyrido[3,4-f][1,4]oxazepin-12-one] |
| 2.95 | 0.522 | C=CC(=O)N1CCN2C(=O)c3c(NC(C)(C)C)nc(-c4ccccc4F)c(Cl)c3OC[C@H]2C1 [Z457, (R)-8-acryloyl-1-(tert-butylamino)-4-chloro-3-(2-fluorophenyl)-6,6a,7,8,9,10-hexahydro-12H-pyrazino[2,1-c]pyrido[3,4-f][1,4]oxazepin-12-one] |
| > 30 | > 1 | C=CC(=O)N1CCN2C(=O)c3c(N4CC(C(=O)O)CC4(C)C)nc(-c4c(O)cccc4F)c(Cl)c3OC[C@H]2C1 (stereo partly drawn) [Z458, 1-((6aR)-8-acryloyl-4-chloro-3-(2-fluoro-6-hydroxyphenyl)-12-oxo-6,6a,7,8,9,10-hexahydro-12H-pyrazino[2,1-c]pyrido[3,4-f][1,4]oxazepin-1-yl)-5,5-dimethylpyrrolidine-3-carboxylic acid] |
| 29.1 | 0.016 | C=CC(=O)N1CCN2C(=O)c3c(N4CCC[C@@]4(C)C(=O)NC)nc(-c4c(O)cccc4F)c(Cl)c3OC[C@H]2C1 [Z462, (2S)-1-((6aR)-8-acryloyl-4-chloro-3-(2-fluoro-6-hydroxyphenyl)-12-oxo-6,6a,7,8,9,10-hexahydro-12H-pyrazino[2,1-c]pyrido[3,4-f][1,4]oxazepin-1-yl)-N,2-dimethylpyrrolidine-2-carboxamide] |
| 9.61 | 0.004 | C=CC(=O)N1CCN2C(=O)c3c(N4C[C@@H](N5CCN(C)CC5)C[C@@H]4C)nc(-c4ccccc4F)c(Cl)c3OC[C@H]2C1 [Z470-2] |
| 6.71 | 0.017 | C=CC(=O)N1CCN2C(=O)c3c(N4CC(N5CCN(C)CC5)CC4(C)C)nc(-c4ccccc4F)c(F)c3OC[C@H]2C1 (stereo partly drawn) [Z474, (6aR)-8-acryloyl-1-(2,2-dimethyl-4-(4-methylpiperazin-1-yl)pyrrolidin-1-yl)-4-fluoro-3-(2-fluorophenyl)-6,6a,7,8,9,10-hexahydro-12H-pyrazino[2,1-c]pyrido[3,4-f][1,4]oxazepin-12-one] |
| 5.17 | 0.005 | C=CC(=O)N1CCN2C(=O)c3c(N4C[C@@H](N(C)C)CC4(C)C)nc(-c4c(F)ccc(F)c4O)c(Cl)c3OC[C@H]2C1 [Z475-1, (6aR)-8-acryloyl-4-chloro-3-(3,6-difluoro-2-hydroxyphenyl)-1-((S)-4-(dimethylamino)-2,2-dimethylpyrrolidin-1-yl)-6,6a,7,8,9,10-hexahydro-12H-pyrazino[2,1-c]pyrido[3,4-f][1,4]oxazepin-12-one] |

Source: US20230203060A1 (GENFLEET THERAPEUTICS (SHANGHAI) INC., priority 2020, published 2023)
